# Laboratory results published in patent publication US7893061B2, “Alkyne-substituted pyridone compounds and methods of use” (Amgen Inc., priority 2006, dated 2011).
# Biological target: T1, c-KIT kinase enzyme (Homo sapiens, UniProt P10721)
# T1 construct: cKIT (6.25 μM) (catalytic domain, N-terminal GST tagged, unphosphorylated)
# Assay: cKIT Homogeneous Time Resolved Fluorescent (HTRF) kinase assay
# Assay type: biochemical
# Settings: inhibition of the c-KIT kinase enzyme
# Protocol: cKIT-Homogeneous Time Resolved Fluorescent (HTRF) Kinase Assay:
# The purpose of this assay is to measure the inhibition of cKIT enzyme activity (autophosphorylation and phosphorylation of substrate) by small molecule test compounds. The cKIT HTRF assay begins with cKIT-catalyzed phosphorylation of biotinylated peptide Her-2 (N-GGMEDIYFEFMGGKKK-C) (SEQ ID 001) in the presence of ATP. The cKIT enzyme reaction is comprised of 1 μL of compound in 100% DMSO, 15 μL of 2× substrate mix (50 μM ATP and 2 μM biotinylated Her-2) and 15 μL of 2× cKIT (6.25 μM) (catalytic domain, N-terminal GST tagged, unphosphorylated) in 4 mM DTT all diluted in enzyme buffer (25 mM HEPES pH 7.5, 12.5 mM NaCl, 50 mM MgCl, 0.05% BSA). The reaction incubates for 90 min at RT. 160 Microliters of detection mixture containing 0.47 μg/mL steptavidin allophycocyanin and 29.7 pM europylatedanti-phosphotyrosine Ab (PT66, Perkin Elmer) in HTRF buffer (100 mM Hepes pH 7.5, 100 mM NaCl, 0.1% BSA, 0.05% Tween 20) is then added to stop the reaction, by diluting out the enzyme as well as to enable quantitation of phosphorylated Her-2. After 3 h at RT, the detection reaction is read in a Packard Discovery™ (model BD1000) plate reader. The wells are excited with coherent […] light and the ratio of delayed ([…] post excitation) emissions at […] (native europium fluorescence) and 665 nm (europium fluorescence transferred to allophycocyanin—an index of substrate phosphorylation) is determined. The proportion of substrate phosphorylated in the kinase reaction in the presence of compound compared with that phosphorylated in the presence of DMSO vehicle alone (HI control) is calculated using the formula:
# % control (POC)=(cpd−average LO)/(average HI−average LO)*100. Data (consisting of POC and inhibitor concentration in μM) is fitted to a 4-parameter equation (y=A+((B−A)/(1+((x/C)^D))), where A is the minimum y (POC) value, B is the maximum y (POC), C is the x (compound concentration) at the point of inflection and D is the slope factor) using a Levenburg-Marquardt non-linear regression algorithm.
# T1 sequence (P10721 589-937 limits assumed): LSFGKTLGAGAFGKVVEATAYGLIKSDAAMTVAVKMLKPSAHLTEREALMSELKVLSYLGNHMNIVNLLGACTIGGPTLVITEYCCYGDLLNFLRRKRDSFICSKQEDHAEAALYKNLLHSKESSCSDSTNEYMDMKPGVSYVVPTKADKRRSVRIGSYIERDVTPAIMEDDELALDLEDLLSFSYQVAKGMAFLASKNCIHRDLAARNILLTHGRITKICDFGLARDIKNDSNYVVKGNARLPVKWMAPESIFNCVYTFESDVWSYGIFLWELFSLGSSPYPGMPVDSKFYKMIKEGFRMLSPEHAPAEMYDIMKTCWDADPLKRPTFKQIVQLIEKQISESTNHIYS
row,Structure (SMILES),IC50 [µM]
1,"Cc1ccc(-n2ccc(C)c(C#Cc3cnc(N)nc3)c2=O)cc1C [Example 7, 3-((2-amino-5-pyrimidinyl)ethynyl)-1-(3,4-dimethylphenyl)-4-methyl-2(1H)-pyridinone]",≤ 0.01
2,"Cc1ccn(-c2ccc3c(c2)NCC3(C)C)c(=O)c1C#Cc1cnc(N)nc1 [Example 6, 3-((2-amino-5-pyrimidinyl)ethynyl)-1-(3,3-dimethyl-2,3-dihydro-1H-indol-6-yl)-4-methyl-2(1H)-pyridinone]",≤ 0.01
3,"Cc1ccn(-c2cccc(C(F)(F)F)c2)c(=O)c1C#Cc1cnc(N)nc1 [Example 4, 3-((2-amino-5-pyrimidinyl)ethynyl)-4-methyl-1-(3-(trifluoromethyl)phenyl)-2(1H)-pyridinone]",≤ 0.1

# Other lines, results leading:
row,IC50 [µM],Structure (SMILES)
1,≤ 0.02,"CC(=O)N1CC(C)(C)c2ccc(-n3ccc(C)c(C#Cc4cnc(N)nc4)c3=O)cc21 [Example 8, 1-(1-acetyl-3,3-dimethyl-2,3-dihydro-1H-indol-6-yl)-3-((2-amino-5-pyrimidinyl)ethynyl)-4-methyl-2(1H)-pyridinone]"
2,≤ 0.1,"Cc1ccn(-c2cccc(OC(F)(F)F)c2)c(=O)c1C#Cc1cnc(N)nc1 [Example 10, 3-((2-amino-5-pyrimidinyl)ethynyl)-4-methyl-1-(3-((trifluoromethyl)oxy)phenyl)-2(1H)-pyridinone]"
3,≤ 0.1,"Cc1ccn(-c2ccc3c(c2)CCO3)c(=O)c1C#Cc1cnc(N)nc1 [Example 9, 3-((2-amino-5-pyrimidinyl)ethynyl)-1-(2,3-dihydro-1-benzofuran-5-yl)-4-methyl-2(1H)-pyridinone]"
